# Columns and labels:
# [1] = Solubility of extracts and reference compounds in solvents / assay medium; assay type: physicochemical
# From the text: A 2.5 gram sample of a red raspberry seed extract in a dry powder form was split into two fractions, one combined 1.25 grams of the dry extract with 11.25 grams of water to create a 10% aqueous solution of the extract. […] Combining 1.25 grams of the dry extract with about 11.25 grams of Isopropyl alcohol (91%) produced an about 10% alcohol solution.
# Using pure water was explored in extraction experiments with cranberry seed powder. The advantages of using water were essentially zero cost and toxicity. […] The limitations of using water were that it gave quite low yields in extractions at room temperature and only dissolved the most polar compounds from the seed powders, leaving most of the medium polarity materials behind. It is possible that this could be improved by heating. […] Simply filtering the mixture through inexpensive filter paper by gravity or mild vacuum was unsuccessful. One solution that worked was mixing in filtering media (diatomaceous earth) and then vacuum filtering through a bed of the same filtering medium. To completely clarify the mixture, an additional treatment with activated carbon and further vacuum filtering through a bed of diatomaceous earth was effective. Given the limitations of water extraction, it was not used extensively. One exception was the use of sodium hydroxide solutions in water to extract pomegranate seed powder, which contained significant amounts of the targeted compound ellagic acid. […] Therefore, 1 M aqueous sodium hydroxide solution was used to extract this material from pomegranate seed powder. After filtering away the solid seed material the solution was acidified to pH=4 by addition of 1 N HCl. A small amount of solid developed, which was filtered with some difficulties.
# The extracts in Tables 2 and 3, prepared from 70:30 methanol/water, were tested for their ability to inhibit tyrosinase at concentrations of 1.0 mg/mL, 0.1 mg/mL, 0.01 mg/mL, and in some cases 0.001 mg/mL. For comparison several other known tyrosinase inhibitors including kojic acid, alpha-arbutin, beta-arbutin, hydroquinone, and quercetin were tested. Kojic acid is often used in tyrosinase inhibition studies as a benchmark inhibitor for comparison with other inhibitors. I included beta-arbutin and hydroquinone due to their relevance in skin whitening applications. Additionally, several commercial skin whitening agents were also tested. These included a product called Radian Skin from BASF, and an arbutin material sold by the company Presperse. […] Even highly dilute samples of ellagic acid were not sufficiently soluble. […] Finally, a mixture of red raspberry and tomato extracts (FIG. 10) was tested to look for possible synergistic effects in mixtures on two quite different materials. […]
# [2] = system: tyrosinase enzyme (from mushroom); assay: Tyrosinase inhibition assay (L-DOPA to dopachrome, absorbance at 475 nm); assay type: biochemical; details: 0.001-1 mg/mL, FIGS. 11-12
# Description: Extracts were tested for their ability to inhibit the enzyme tyrosinase. This enzyme catalyzes the air oxidation of L-DOPA (colorless) to the compound dopachrome, which is a highly colored intermediate in the production of melanin. The dopachrome molecule absorbs strongly at 475 nm. So, measuring the rate of change of absorption at this wavelength using UV/visible spectroscopy can easily assess the enzyme's activity. The tyrosinase enzyme (from mushroom) was purchased from Sigma-Aldrich as a lyophilized powder with an activity of 5771 units per mg of solid (a unit of activity is defined as the rate at which the enzyme catalyzes the reaction of a standard substrate at a standard concentration). […] Next, the enzyme solution was added (500 μL), the cuvette was covered with a piece of Parafilm and inverted twice to thoroughly mix the solutions, and immediately after the cuvette was placed in a UV/visible spectrometer and absorbance was measured at 475 nm every second for 60 seconds. The slope of the line formed by graphing change in absorbance versus time gave the rate in units of AA/second. […] Percentage inhibition values were calculated by taking the rate of the blank run with no inhibitor minus the rate of the inhibited sample and then dividing that value by the blank rate and multiplying by 100. […]
smiles,measurement,setting,value
O=c1oc2c(O)c(O)cc3c(=O)oc4c(O)c(O)cc1c4c23 [ellagic acid],solubility (medium not stated),[1],highly insoluble
same,solubility in water,[1]; high pH,very water soluble
same,solubility in water,[1]; neutral pH,only slightly soluble
same,solubility in the enzyme assay,[1]; tyrosinase assay medium,highly insoluble
O=c1cc(CO)occ1O [kojic acid],"tyrosinase inhibition strength (in words, from dose-response curves)",[2],strongest inhibitor
O=c1c(O)c(-c2ccc(O)c(O)c2)oc2cc(O)cc(O)c12 [quercetin],"tyrosinase inhibition strength (in words, from dose-response curves)",[2],considerably more potent than the others
